Measured values as given in patent publication US6602512B1, “Composition for the prevention of muscle fatique and skeletal muscle adaptation of strenuous exercise” (Sigma-Tau HealthScience S.p.A., priority 1999, dated 2003).

What was measured:
mice = experiment: Muscle fatigue test (swimming endurance); assay type: in vivo; settings: for swimming endurance time (in words): daily oral 200 mg/kg over 6 days, versus controls; for Swimming time: daily oral doses of 200 mg/kg of each compound over 6 days preceding the test
Description: The method described by Zheng (Zheng R. L., Acta Pharmacol. Sinica, 14, 47, 1993) was used for this test in order to observe whether the administration of L-carnitine or creatinol-phosphate or of the two products in combination might increase […] in treated animals as compared to controls.
In this test, different groups of mice received daily oral doses of 200 mg/kg of L-carnitine or 200 mg/kg of creatinol-phosphate or of the two compounds in combination over the 6-day period preceding the test. The animals were immersed in a tank full of water and swimming endurance time was measured.

gastrocnemius muscle = experiment: Forced muscular exercise test (treadmill), MDA content in gastrocnemius muscle; assay type: in vivo; settings: rats, daily oral 200 mg/kg of each compound for 6 days; for MDA content in muscle, After 5 min: gastrocnemius muscle 5 min after end of treadmill test; for MDA content in muscle, After 30 min: gastrocnemius muscle 30 min after end of treadmill test
Source text: As is known, forced muscular exercise can produce structural and inflammatory-type lesions at muscle fibre level, due to the increased oxygen consumption and to production of reactive oxygen species (ROS). A marker of the level of ROS-induced lipid peroxidation of the muscle may be obtained from its malondialdehyde (MDA) concentration. For this test, the method described by Husain was used (Husain K., Pathophysiology, 4, 69, 1997) as modified by Li (Li J.X., Acta Pharmacologica Sinica, 20, 126, 1999) which consists essentially in examining rats on a treadmill at controlled belt speed and preset inclination. In this way the rats were made to run at a belt speed of 28 m/min and an inclination of approximately 5°. Exhaustion of the control animals subjected to the exercise occurred after approximately 90 minutes.
The test was performed on rats receiving daily oral treament over the 6-day period preceding the test with 200 mg/kg of L-carnitine or with 200 mg/kg of creatinol-phosphate or with the two compounds in combination.
Five minutes and 30 minutes, respectively, after the end of the test, the animals were sacrificed and samples of gastrocnemius muscle were taken for measurement of the malondialdehyde (MDA) content using the reaction with thiobarbituric acid according to the method described by Ohkawa (Ohkawa H. Angl. Biochem 95, 351, 1979).

| SMILES | swimming endurance time (in words) (mice) | Swimming time (mice) | MDA content in muscle, After 5 min (gastrocnemius muscle) | MDA content in muscle, After 30 min (gastrocnemius muscle) |
| --- | --- | --- | --- | --- |
| CN(CCOP(=O)(O)O)C(=N)N [Creatinol-phosphate, 1-(2-hydroxyethyl)-1-methylguanidine-O-phosphate] | increased swimming endurance time | 124 ± 11 min | 206 ± 16 nmol/g | 209 ± 12 nmol/g |
| C[N+](C)(C)C[C@H](O)CC(=O)[O-] [L-carnitine] | increased swimming endurance time | 118 ± 14 min | 218 ± 11 nmol/g | 216 ± 14 nmol/g |
